Assay: Inhibitory effect on human liver uridine phosphorylase
Compound `O=C1NC(=S)NC(=O)C1Cc1cccc(OCc2ccccc2)c1` has a Ki of 3.7 µM.
`O=C1NC(=O)C(Cc2cccc(OCc3ccccc3)c2)C(=O)N1` gave a Ki of 2.3 µM.
`O=C1NC(=O)C(Cc2ccc(OCc3ccccc3)cc2)C(=O)N1` showed a Ki of 118 µM.
Compound `O=C1NC(=O)C(Cc2ccccc2OCc2ccccc2)C(=O)N1` has a Ki of 41.8 µM.

From ChEMBL document CHEMBL1131725, “Uridine phosphorylase inhibitors: chemical modification of benzyloxybenzyl-barbituric acid and its effects on urdpase inhibition” (Bioorg Med Chem Lett, 1999)
